Experimental data published in patent US20120202840A1, “Use of Flubendazole and Vinca Alkaloids for Treatment of Hematological Diseases” (priority 2009, published 2012).
Where two headings read alike, the source gives them in different places.

Key:
[1] = system: A549.EpoB40; test: MTS assay, A549.EpoB40 (β-tubulin mutant); format: cell-based
Procedure: (§1) Next, whether microtubule inhibition was functionally important for flubendazole's cytotoxicity was determined.
(§2) Leukemia (U937, MDAY, CEM, CEM-VBL) and solid tumor cell lines (PPC-1, HeLa) were cultured in RPMI 1640 medium. The epidermoid carcinoma cell lines KB-3-1 and KB-4.0-HTI^23 were grown in Dulbecco's Modified Eagle Medium. The lung carcinoma cell lines A549 and A549.EpoB40 were grown in RPMI with the latter supplemented with 20% fetal calf serum (FCS), and 40 nM epothilone B.^24 Leukemia cell lines OCI-AML2, CEM, and NB4 and all the myeloma cell lines (OPM2, KMS11, JJN3 LP1, H929, L1, KMS12, KSM18 and OCI My5) were maintained in Iscove's Modified Dulbecco's Medium (IMDM). TEX cells were maintained in IMDM, 15% FCS, 1% penicillin-streptomycin, 2 mM L-glutamine, 20 ng/mL SCF, 2 ng/mL IL-3. Unless otherwise noted, all media were supplemented with 10% FCS, 100 units/mL of streptomycin and 100 μg/mL of penicillin (all from Hyclone, Logan, Utah). Cells were incubated in a humidified air atmosphere containing 5% CO2 at 37° C.
(§3) Cell growth and viability was measured using the 3-(4,5-dimethylthiazol-2-yl)-5-(3-carboxymethoxyphenyl)-2-(4-sulfophenyl)-2H-tetrazolium inner salt (MTS) reduction assay (Promega, Madison, Wis.) according to the manufacture's protocol and as previously described^25. […] Optical density (OD) was measured at 490 nm.

[2] = system: Primary AML cell samples; test: Methylcellulose colony forming assay; format: cell-based, human; conditions: primary AML samples (n=3), colonies counted 7 days after plating
Procedure: (C) Primary AML cell samples (n=3) were plated in a methylcellulose colony forming assay with increasing concentrations of flubendazole. Colonies were counted 7 days after plating and normalized to cultures treated with buffer alone. Data represent the mean±SD from 3 independent experiments performed in duplicate.
Primary human acute myeloid leukemia (AML) samples were isolated from the peripheral blood of consenting AML patients, who had at least 80% malignant cells among the mononuclear cells in their peripheral blood and cultured at 37° C. in IMDM, 10% fetal calf serum, 100 units/mL of streptomycin and 100 μg/mL of penicillin. The collection and use of human tissue for this study was approved by the local ethics review board (University Health Network, Toronto, ON, Canada).

[3] = chickens, up to 180 mg/kg daily for 7 days; cited from earlier work
[4] = system: PPC-1 cells; test: Mitotic catastrophe (multinucleated cells); format: cell-based; conditions: 1.0 μM, 24 h
Procedure: (C) PPC-1 cells were treated as above and stained with anti α-tubulin antibody and DAPI, as described in the materials and methods. Cells were imaged by confocal microscopy and the number of multi-nucleated cells was enumerated. Data represent the mean±SD percent of multinucleated cells from a representative experiment *p<0.0001 (unpaired t test). Insert: a representative multi-nucleated cell.
Mitotic catastrophe was measured by enumerating the number of multinucleated cells similar to the method previously described^26. Briefly, cells (5.0×10^5) were fixed and stained as described below. Fields containing 100 cells per treatment group were selected at random and visualized at 20×. A total of 700 cells were scored per treatment condition. A positive score for mitotic catastrophe was given when two or more distinct nuclear lobes were visualized within a single cell.

[5] = sheep, cited from earlier work
[6] = system: KB-3-1; test: MTS assay, KB-3-1 wild type; format: cell-based; conditions: Homo sapiens; KB-3-1, MTS assay, 3 replicates
Procedure: as §1, §2, §3

[7] = system: A549; test: MTS assay, A549; format: cell-based; conditions: Homo sapiens, 3 replicates
Procedure: as §1, §2, §3

[8] = system: OCI-AML2 cells
Procedure: Sub-lethally irradiated SCID mice were injected subcutaneously with OCI-AML2 cells (n=20; 10 per group). After implantation, mice were treated with 50 mg/kg flubendazole (A), 20 mg/kg flubendazole (B), or vehicle control by intraperitoneal injection daily. Tumor volume was measured over time. After 16 days (20 mg/kg dose) or 18 days (50 mg/kg dose), mice were sacrificed and tumors were excised, measured and weighted.
Sub-lethally irradiated SCID mice were injected subcutaneously with OCI-AML2 cells (n=40; 10 per group). […] After 16 (C) or 18 (D) days, mice were sacrificed and tumors were excised, measured and weighted. Data represent the mean±SD tumor weight.
Sub-lethally irradiated SCID mice were injected subcutaneously in the left flank with leukemia OCI-AML2 (2.0×10^6) or myeloma OPM2 (1.0×10^7) cells. Mice were then randomly assigned to receive flubendazole (in 0.9% NaCl and 0.01% tween-80) or vehicle control (0.9% NaCl and 0.01% tween-80) intraperitoneally. […] Tumor volumes (tumor length×width^2×0.5236) were monitored daily using calipers. At the end of the experiment (16-18 days), mice were sacrificed, tumors excised and tumor volume and weight measured. All animal studies were carried out according to the regulations of the Canadian Council on Animal Care and with the approval of the local ethics review board.

[9] = in vitro; format: cell-based; conditions: human
Procedure: (§4) (E) HeLa cells were grown to confluence and a wound created on the cell monolayer using a 200 μL pipette. Cells were treated with increasing concentrations of flubendazole and imaged every 2 h for 8 h. Wound healing was measured as described in the materials and methods. Representative data is shown and are presented as % wound recovery. *p<0.05 (ANOVA, bonferroni post hoc).
(§5) HeLa cell migration was measured as previously described^30. Briefly, HeLa cells were seeded in 4 well chambers and grown to confluence. A wound was inflicted to the monolayer using a 200 μL pipette tip. Wells were washed with media to remove any detached cells and media containing either 0 μM, 0.5 μM or 1.0 μM flubendazole was then added and incubated at 37° C. for 8 hours. Images were captured using a Zeiss Axiovert 200M microscope every 2 hours. These images were quantified using Image J software, which outlined and enumerated the number of pixels in the wound area. Cell migration of HeLa cells was recorded and calculated as a percent recovery of wound area.

[10] = system: HeLa cells; test: in vitro; format: cell-based; conditions: HeLa, 0.5 or 1.0 μM, 8 hours
Procedure: as §4, §5

[11] = single dose of 5 mg/kg intravenously
[12] = OCI-AML2 xenograft, 20 or 50 mg/kg daily intraperitoneally, vs vehicle, p<0.0001

For `COC(=O)Nc1nc2ccc(C(=O)c3ccc(F)cc3)cc2[nH]1` [flubendazole], the IC50 ([1]; A549.EpoB40, MTS assay, 3 replicates) was 800 ± 200 nM, the “IC50 lower in A549.EpoB40 than in A549 control cells” value ([1]; ratio of IC50 values of Table 1) was 5 fold and the clonogenic growth [2] was “reduced the clonogenic growth”. For the same molecule, the toxicity [3] was “developed anemia and reduction of red cells in the spleen”, the “number of multi-nucleated cells” value [4] was “increased the number of multi-nucleated cells” and the estimated half life ([5]; after oral administration) was 6.5 h. The “fraction of flubendazole absorbed” value ([5]; oral) was 18%, the area under the curve (AUC) ([5]; single dose of 5 mg/kg intravenously, over 36 hours) was 22 µM·h and the “area under the curve (AUC)” value [5, 11] was 6530 ng·h/mL. For the same molecule, the toxicity [5, 11] was “no toxicity was observed”, the IC50 [6] was 1900 ± 1100 nM and the IC50 [7] was 4100 ± 1300 nM. For the same molecule, the tumor growth [8, 12] was “significantly delayed tumor growth”, the tumor weights [8, 12] was “reduced tumor weights” and the “weight loss, behavioral changes or gross organ toxicity” value ([8]; mouse, in vivo) was “no evidence of weight loss, behavioral changes or gross organ toxicity”. The viability at 8 h [9] was > 89% and the “cell migration / wound healing” value [10] was “impaired cell migration and delayed wound healing”.
